Experimental findings from PubChem BioAssay (NCI) are described below.

Each structure is given as a SMILES string.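 Values below derive from 48-hour exposures of cells grown in 96-well plates, with endpoints linearly interpolated between the two concentrations bracketing the appropriate inhibition level. TGI: concentration producing complete growth inhibition.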

What all share (experiment): growth of human tumour cells (NCI), 48 h
The subject of assay [1] is DLD-1 colon.
Assay [2] has as its system SK-MEL-2 melanoma.
The test system of assay [3] is DMS 273 small cell lung.
The test system of assay [4] is HCC-2998 colon.
The test system of assay [5] is DMS 114 small cell lung.
The subject of assay [6] is LXFL 529 NSCLC.
In assay [7] the test system is XF 498 CNS.
The subject of assay [8] is SF-268 CNS.
In assay [9] the test system is K-562 leukemia.
Assay [10] deals with HOP-92 NSCLC.
In assay [11] the test system is OVCAR-8 ovarian.
For assay [12], the system named is M19-MEL melanoma.
Assay [13] relates to KM20L2 colon.
In assay [14] the test system is MALME-3M melanoma.
Assay [15] has as its system SNB-78 CNS.
Assay [16] concerns HOP-18 NSCLC.

Take `COC1=CC(=O)c2c(O)c3c(c(O)c2C1=O)C=C(C)OC3O` (stereo not drawn): the TGI in assay [1] worked out at 3.87 µM; in assay [2], 5.19 µM; in assay [3] it was 2.17 µM; in [4] it was 3.74 µM; in assay [5] it was 2.96 µM; in assay [6] it was 2.7 µM. Further, the TGI in assay [7] was 4.72 µM; in [8] it was 5.86 µM; in assay [9], 5.07 µM; in assay [10], 20.9 µM; in assay [11], 2.82 µM; in assay [12] it was 0.502 µM. Further, the TGI in assay [13] is 10.4 µM; in assay [14], 0.877 µM; in [15], 4.14 µM.

Turning to `c1ccc(C2OCCO2)c(OCCOc2cc(OCCOc3ccccc3C3OCCO3)c(OCCOc3ccccc3C3OCCO3)cc2OCCOc2ccccc2C2OCCO2)c1`, the TGI in assay [1] is over 100 µM; in assay [2], 47.9 µM; in assay [3], 50.9 µM; in assay [5], 29.9 µM; in assay [6], over 100 µM; in [8], 66.5 µM. Besides, the TGI in assay [9] is over 100 µM; in assay [10] it was 21 µM; in assay [11] it was over 100 µM; in assay [12] it was over 100 µM; in assay [13], over 100 µM; in [14] it was over 100 µM. For the same compound, the TGI in [16] is over 100 µM; in [15] it was 28 µM.

Turning to `Cc1ccc2c(C)c3ccc4ccccc4c3c[n+]2c1`, the TGI in assay [1] is over 100 µM; in [2], 29.5 µM; in [3], 32.7 µM; in assay [4], 28.6 µM; in assay [5] it was 31 µM; in assay [6], 30.4 µM. Further, the TGI is 14.8 µM in [8]; over 100 µM in assay [9]; 52.7 µM in assay [10]; 36.9 µM in assay [11]; 17.3 µM in [12]; over 100 µM in assay [13]. In addition, the figures for the TGI in assay [14], in assay [16] and in [15] were 9.74 µM, 43.2 µM and over 100 µM, respectively.

With `CCSc1nc(=[N+]2CCCC2)ss1`, the TGI in assay [1] is over 100 µM; in assay [2], over 100 µM; in assay [3] it was over 100 µM; in assay [4], over 100 µM; in assay [5], 55.5 µM; in [6], over 100 µM. Moreover, the TGI in [7] is over 77.9 µM; in assay [8], over 100 µM; in assay [9] it was 24.1 µM; in [10] it was over 100 µM; in assay [11], over 100 µM; in assay [12], 27.3 µM. In addition, the TGI in assay [13], in [14], in [16] and in assay [15] was over 100 µM throughout.

As for `COc1ccc(-c2cc(=O)c3cc4c(cc3[nH]2)OCO4)cc1`, the TGI in [1], in [2], in assay [3], in [4], in assay [5] and in assay [6] was over 100 µM each time. Also, the TGI in assay [7], in [8], in assay [9], in assay [11], in assay [12] and in assay [13] was over 100 µM each time. In assay [14], this compound registered a TGI of over 100 µM.
